Values after ≈ are worked out from the molar mass of the structure shown. Read-outs that look alike come from different tables or passages of the source. No end group written: not given here.
How the values were obtained:
[1] = system: A. fumigatus (AM2002/066 and NPCF2939); assay: Antifungal activity (CLSI M38-A2 micro-broth dilution) and MFC; type: cell-based; conditions: for A. fumigatus MIC100 / MIC: Table 5, average of two strains, 48 h at 30° C.; for MIC: read-out: A. fumigatus MIC100
Experimental: (§1) The fungal strains A. fumigatus (AM2002/066 and NPCF2939), A. flavus (01-1554 and NPCF7117) and A. niger (01-1494 and NCPF2022) were obtained from the National Collection of Pathogenic Fungi (NPCF) or American Type Culture Collection (ATCC). Fungal strains were grown on SAB slopes for 72 h at 30° C. before experimental use. C. albicans strain SC5314 was purchased from ATCC and grown overnight on SAB slopes at 30° C. before experimental use.
(§2) The antifungal activity of peptides was examined using the conditions of the Clinical Laboratory Standards Institute document M38-A2. Peptide antifungal activity was assessed by micro-broth dilutions with a serial two-fold dilution of test compound prepared in a 96 well plate from 0 to maximum concentration to be tested (here 2× concentration required, 250 μg/ml). Fungal suspensions were prepared by flooding slopes with PBS and filtering through gauze to collect spores. The suspension was then adjusted to a density of 2×10^4 colony-forming units/ml in 2× culture medium (RPMI 1640, 0.165 M MOPS, pH 7.4 with L-glutamine, without NaHCO3 medium) and an equal volume was added to the different peptide concentrations in the 96 well plate. Plates where incubated at 30° C. for 48 h before growth inhibition was determined by measuring absorbance at 530 nm (Biotek Powerwave). Antifungal activity was defined by the minimum inhibitory concentration (MIC), the concentration at which no growth was observed.
(§3) For examining the minimum fungicidal concentration (MFC) 10 μl of fungal and peptide suspension was transferred from every well to the corresponding well in a sterile 96-well plate containing fresh culture medium (RPMI-1640, 0.165 M MOPS, pH 7.4 with L-glutamine, without NaHCO3 medium). Aspergillus was then incubated for a further 48 h after which absorbance was measured at 530 nm. MFC was defined as the concentration at which no growth was observed.

[2] = system: A549 cells; conditions: lipid alone at 200 μg/ml
Experimental: The cell lines A549 (Human Lung Adenocarcinoma Epithelial Cell Line) and HepG2 (Human Hepatocellular Carcinoma Cell Line) were purchased from ATCC. A549 cells were maintained in F-12K medium (Gibco) containing 10% foetal bovine serum (Life Technologies) and 1% penicillin/streptomycin (Life Technologies) and HepG2 cells were maintained in Dulbecco's modified eagles medium (Gibco) containing 10% foetal bovine serum (Life Technologies), penicillin/streptomycin (Life Technologies) and 1% 0.01 mg/ml human transferrin (Sigma). Both were incubated at 37° C. with 5% CO2 until cells reached >80% confluence before splitting or experimental use.
Before exposure to peptides, the plate was incubated at 37° C. with 5% CO2 overnight to allow cells adhere. […] Medium was removed from the plate containing cells and peptide dilutions were transferred to cells and incubated for a further 3 h at 37° C. with 5% CO2. Cytotoxicity was determined by LIVE/DEAD® Viability/Cytotoxicity kit (Invitrogen Life Technologies), a working solution of 2 μM calcein AM and 4 μM EthD-1 and in conjunction Alamar Blue at a final concentration of 10% was added to the wells. Cells without peptides were the negative control and 1% DMSO was the positive control. Cells were incubated for 3 h again at 37° C. with 5% CO2.

[3] = system: A. flavus (01-1554 and NPCF7117); assay: Antifungal activity (CLSI M38-A2 micro-broth dilution) and MFC; type: cell-based; conditions: Table 5, average of two strains, 48 h at 30° C.; for MIC: Aspergillus flavus, read-out: A. flavus MIC100
Experimental: as §1, §2, §3

[4] = system: A. niger (01-1494 and NCPF2022); assay: as above; type: cell-based; conditions: Table 5, average of two strains, 48 h at 30° C.; for MIC: Aspergillus niger, NCPF2022, read-out: A. niger MIC100
Experimental: as §1, §2, §3

[5] = system: human red blood cells (hRBC); assay: Haemolysis of human red blood cells; conditions: lipid alone at 200 μg/ml
Experimental: Peptides were tested for their haemolytic activity against human red blood cells (hRBC). Fresh hRBCs collected in BD Vacutainer® tubes with EDTA were rinsed 3 times with PBS (pH 7.4) by centrifugation for 10 min at 800 g and resuspended, 1 in 10 diluted with PBS. […] Release of haemoglobin was then calculated by transferring supernatant to a flat bottomed 96-well plate and measuring absorbance at 578 nm. hRBCs with no peptides added and H2O provided the controls.

[6] = system: C. albicans SC5314
Experimental: (B) Efficacy of AMPs of same length was evaluated by MIC after 24 incubation at 37° C. Data is expressed as percentage of the positive growth controls. Data is the mean±standard error of the mean (n=3).
The efficacy of AMPs was determined versus C. albicans SC5314 before evaluating the effect of pH on activity.

[7] = system: C. albicans SC5314; type: cell-based
Experimental: 1×RPMI-1640 Buffered with Citrate Phosphate Buffer
Citrate phosphate buffer was prepared by mixing 0.1 M citric acid and 0.2 M dibasic sodium phosphate dodecahydrate in the proportions indicated in the Table 2 and the volume adjusted to 90 ml with dH2O.
pH buffered medium was prepared by dissolving 1.04 g RPMI-1640 premix powder in 10 ml citrate phosphate buffer. The volume was then adjusted to 40 ml with dH2O and the pH adjusted by addition of the acid or base. The volume was adjusted to 50 ml with dH2O. The medium was then filter sterilized by vacuum filtration through a 0.2 μm filter and stored at 4° C. and kept for up to 2 weeks.
The pH of RPMI-1640 was altered, using citrate phosphate buffer, to reflect the more acidic pH environment in the oral cavity. NP319 and NP377 were active against C. albicans SC5314 from pH 5.5-7.0 (Table 2). For all AMPs tested the optimum pH for activity was pH 5.5. NP377 maintained activity at 2 μg/ml from pH 5.5-7 with reduced activity at pH 5.

[8] = system: C. albicans SC5314; type: cell-based; conditions: RPMI-1640, 48 h data
Experimental: The purity of the peptide was taken into account during the preparation to ensure preparation of the correct concentration. Peptides solutions were stored at −20° C. until required.
The antifungal activity of the peptides was based on that of the Clinical Laboratory Standards Institute document M27-A3. A serial two-fold dilution of peptide was prepared across a 96-well microtitre plate with concentration ranging from 2 mg/ml to […]; upon addition of the cells these concentrations shall be halved, with additional wells lacking peptide as a 0 mg/ml control. An addition control lacking culture was also prepared.
To prepare the fungal inoculum, an overnight culture of C. albicans SC5314 was grown at 30° C. on Sabouraud dextrose agar. Cells were washed from the surface of the agar and diluted to the equivalent of the 0.5 MacFarland standard. A further 1:50 dilution of the cells into 2×RPMI-1640 was carried out, and an equal volume was added to the different peptide concentrations in the microtitre plate. To measure the metabolic activity of the cells, 10 μl of a 0.25% solution of resazurin was added to each well. Plates were incubated in the dark at 30° C. for 48 h with growth inhibition determined by measuring absorbance at 530 nm/590 nm at 0 h, 24 h and 48 h on a BioTek PoweWave. Antifungal activity was defined by the minimum inhibitory concentration (MIC), the concentration at which no growth was observed.

[9] = system: C. albicans SC5314; type: cell-based; conditions: RPMI-1640 and 25% plasma, 24 h data
Experimental: A peptide “master” plate was prepared by the addition of 200 μl of the 20 mg/ml stock to column 11 on a microtitre plate. One hundred microliters of sterile water was added to the remaining wells. Serial two-fold dilutions of the peptides were carried out across the plate from right to left. From the “master” plate, 25 μl of peptides were added to corresponding wells on three “working” plates. To each well on the “working” plate, 25 μl human plasma was added, resulting in the halving of both the concentration of the peptide in the working plate and human plasma. Column 12 contained the controls.
An overnight culture of C. albicans SC5314 was grown at 30° C. on Sabouraud dextrose agar and the cells were washed from the surface of the agar and diluted to the equivalent of the 0.5 MacFarland standard. A further 1:50 dilution of the cells into 2×RPMI-1640 was carried out, and 50 μl of the cell suspension was added to each well of the plate. […] Plates were incubated at 30° C. for 48 h with growth inhibition determined by measuring absorbance at 530 nm at 0 h, 24 h and 48 h on a BioTek PoweWave. Antifungal activity was defined by the minimum inhibitory concentration (MIC), the concentration at which no growth was observed.

[10] = neutral pH, no saliva, 24 h incubation at 37° C.

CCCCCCCC(=O)O [Octanoic (C8), Octanoic]
% Growth Inhibition of A. fumigatus at 48 h ([1]; lipid alone at 200 μg/ml, 48 h): 60% | % A549 Cell Death at 3 h [2]: 5%

C[C@@H]1[C@H](O)[C@@H](C)/C=C/C=C/C=C/C=C/C=C/C=C/C=C/[C@H](O[C@@H]2O[C@H](C)[C@@H](O)[C@H](N)[C@@H]2O)C[C@@H]2O[C@](O)(C[C@@H](O)C[C@@H](O)[C@H](O)CC[C@@H](O)C[C@@H](O)CC(=O)O[C@H]1C)C[C@H](O)[C@H]2C(=O)O [Amphotericin B]
A. flavus MIC100 [3]: 1.5 µg/mL | A. fumigatus MIC100 [1]: 1 µg/mL | A. niger MIC100 [4]: <1 µg/mL

CCCCCC(=O)O [Hexanoic (C6), Hexanoic]
% Growth Inhibition of A. fumigatus at 48 h ([1]; lipid alone at 200 μg/ml, 48 h): 50% | % A549 Cell Death at 3 h [2]: 0% | % Haemolytic Activity at 3 h [5]: 40%

RRRFRFRFRFRRR [NP466]
MIC90 ([6]; SC5314, 24 h): 32 µg/mL | MIC100 [6, 10]: did not achieve a MIC100

CCCC(=O)O [Butanoic (C4), Butanoic]
% Growth Inhibition of A. fumigatus at 48 h ([1]; lipid alone at 200 μg/ml, 48 h): 35% | % A549 Cell Death at 3 h [2]: 0% | % Haemolytic Activity at 3 h [5]: 30%

dHdHdRdRdRdRdRdRdRdRdRdRdRdRdR-CONH [NP376]
MIC100 [6, 10]: 2 µg/mL

CC(=O)O [Acetic (C2), Acetic]
inhibition at 200 µg/mL ([1]; Aspergillus fumigatus, lipid alone at 200 μg/ml, 48 h, read-out: % Growth Inhibition of A. fumigatus at 48 h): 5%

CCCCCCCCCCCC(=O)O [Dodecanoic (C12), Dodecanoic]
% Growth Inhibition of A. fumigatus at 48 h ([1]; lipid alone at 200 μg/ml, 48 h): 45% | % A549 Cell Death at 3 h [2]: 20% | % Haemolytic Activity at 3 h [5]: 20%

CCC(C)n1ncn(-c2ccc(N3CCN(c4ccc(OCC5COC(Cn6cncn6)(c6ccc(Cl)cc6Cl)O5)cc4)CC3)cc2)c1=O (stereo not shown) [Itraconcazole]
A. flavus MIC100 [3]: 1 µg/mL | A. fumigatus MIC100 [1]: <1 µg/mL | A. niger MIC100 [4]: <1 µg/mL

C[C@@H]1[C@H](O)[C@@H](C)/C=C/C=C/CC/C=C/C=C/C=C/C=C/C(O[C@H]2O[C@H](C)[C@@H](O)[C@H](N)[C@@H]2O)CC2O[C@](O)(CC(O)C(O)CCC(O)CC(O)CC(O)CC(=O)O[C@H]1C)CC(O)C2C(=O)O (stereo partly shown) [Nystatin]
MIC50 ([7]; pH 4.5): 2 µg/mL (≈ 2.16 µM) | MIC100 ([7]; pH 4.5): 2 µg/mL (≈ 2.16 µM) | MIC50 ([7]; pH 5): 1 µg/mL (≈ 1.08 µM) | MIC100 ([7]; pH 5): 1 µg/mL (≈ 1.08 µM) | MIC50 ([7]; pH 5.5): 1 µg/mL (≈ 1.08 µM) | MIC100 ([7]; pH 5.5): 1 µg/mL (≈ 1.08 µM) | MIC50 ([7]; pH 6): 1 µg/mL (≈ 1.08 µM) | MIC100 ([7]; pH 6): 1 µg/mL (≈ 1.08 µM) | MIC50 ([7]; pH 6.5): 1 µg/mL (≈ 1.08 µM) | MIC100 ([7]; pH 6.5): 1 µg/mL (≈ 1.08 µM) | MIC50 ([7]; pH 7): 1 µg/mL (≈ 1.08 µM) | MIC100 ([7]; pH 7): 1 µg/mL (≈ 1.08 µM)

CCCCCCCCCCCCCCCC(=O)O [Palmitic (C16), Palmitic]
% Growth Inhibition of A. fumigatus at 48 h ([1]; lipid alone at 200 μg/ml, 48 h): 0% | % A549 Cell Death at 3 h [2]: 10%

CCCCCCCCCCCCCC(=O)O [Tetradecanoic (C14), Tetradecanoic]
% Growth Inhibition of A. fumigatus at 48 h ([1]; lipid alone at 200 μg/ml, 48 h): 15% | % A549 Cell Death at 3 h [2]: 0% | % Haemolytic Activity at 3 h [5]: 20%

CC[C@H](C)C[C@H](C)CCCCCCCCC(=O)N[C@H]1C[C@@H](O)[C@@H](NCCN)NC(=O)[C@@H]2[C@@H](O)CCN2C(=O)[C@H]([C@H](O)CCN)NC(=O)[C@H]([C@H](O)[C@@H](O)c2ccc(O)cc2)NC(=O)[C@@H]2C[C@@H](O)CN2C(=O)[C@H]([C@@H](C)O)NC1=O [Caspofungin]
MIC [3]: 128 µg/mL (≈ 117 µM) | MIC ([1]; Aspergillus fumigatus): 64 µg/mL (≈ 58.5 µM) | MIC [4]: 16 µg/mL (≈ 14.6 µM)

OC(Cn1cncn1)(Cn1cncn1)c1ccc(F)cc1F [Fluconazole]
MIC [3]: 64 µg/mL (≈ 209 µM) | MIC ([1]; Aspergillus fumigatus): 64 µg/mL (≈ 209 µM) | MIC [4]: 64 µg/mL (≈ 209 µM)

CCCCCCCCCC(=O)O [Decanoic (C10), Decanoic]
% Growth Inhibition of A. fumigatus at 48 h ([1]; lipid alone at 200 μg/ml, 48 h): 20% | % A549 Cell Death at 3 h [2]: 25% | % Haemolytic Activity at 3 h [5]: 10%

N=C(N)NCCC[C@H](NC(=O)[C@H](CCCNC(=N)N)NC(=O)[C@H](CCCNC(=N)N)NC(=O)[C@H](CCCNC(=N)N)NC(=O)[C@H](CCCNC(=N)N)NC(=O)[C@H](CCCNC(=N)N)NC(=O)[C@H](CCCNC(=N)N)NC(=O)[C@H](CCCNC(=N)N)NC(=O)[C@H](CCCNC(=N)N)NC(=O)[C@H](CCCNC(=N)N)NC(=O)[C@H](CCCNC(=N)N)NC(=O)[C@H](CCCNC(=N)N)NC(=O)[C@H](CCCNC(=N)N)NC(=O)[C@@H](N)CCCNC(=N)N)C(=O)O [Novamycin]
MIC50 [8]: <2 µg/mL | MIC80 [8]: 2 µg/mL (≈ 0.907 µM) | MIC100 [8]: 4 µg/mL (≈ 1.81 µM) | MIC50 [9]: 78.1 µg/mL (≈ 35.4 µM) | MIC80 [9]: 156.25 to 312.5 µg/mL | MIC100 [9]: 312.5 µg/mL (≈ 142 µM)

Palm-dRdRdRdRdRdRdRdRdRdRdRdR-CONH [NP375]
MIC100 [6, 10]: 16 µg/mL

Poly-L-Arg, HCl salt [NP121]
MIC80 [6, 10]: 64 µg/mL
